# Assay results published in patent publication US20190358343A1, “ADOPTIVE TRANSFER OF CAR T CELLS WITH SURFACE-CONJUGATED DRUG-LOADED NANOPARTICLES AND USES THEREOF” (University of Southern California, priority 2017, published 2019).
# Where two headings read alike, the source gives them in different places.
# Tests used:
# adenosine receptor A2A = adenosine receptor A2A (Homo sapiens, UniProt P29274); conditions: cited from earlier work
# [1] = test system: tumor cells (SKOV3-CD19+); assay: In vitro XTT assay; format: cell-based, human
# From the text: (§1) Based on the procedure of nanoparticle-cell surface conjugation developed in Stephen et al (2010), we pioneered the utilization of CAR engineered human PBMCs as therapeutic cells that have nanoparticles conjugated to the surface. The nanoparticles encapsulate small molecule inhibitors of the A2a receptor, e.g., SCH 58261, which is highly hydrophobic and is generally unsuitable for systemic infusion. […] Therefore, SCH 58261 is a suitable drug to illustrate the advantage of this T cell-nanoparticle cargo system for the purposes of enhancing CAR T cell therapy by co-delivering therapeutic cells and adjuvant in the same unit. Compare with other compositions or systems to block the A2aR pathway, such as genetically engineering CAR-T cells with the CRISPR/Cas system or receptor siRNA knock down, a major advantage of presently disclosed composition and method is the ability of the drug to affect endogenous T cells and circulating CAR-T cells, as well as the carrier CAR-T cells themselves.
# PBMCs = assay: In vitro XTT assay; format: cell-based, human
# From the text: as §1
# [2] = cited from earlier work
# Sequence of adenosine receptor A2A (P29274 whole entry, species assumed): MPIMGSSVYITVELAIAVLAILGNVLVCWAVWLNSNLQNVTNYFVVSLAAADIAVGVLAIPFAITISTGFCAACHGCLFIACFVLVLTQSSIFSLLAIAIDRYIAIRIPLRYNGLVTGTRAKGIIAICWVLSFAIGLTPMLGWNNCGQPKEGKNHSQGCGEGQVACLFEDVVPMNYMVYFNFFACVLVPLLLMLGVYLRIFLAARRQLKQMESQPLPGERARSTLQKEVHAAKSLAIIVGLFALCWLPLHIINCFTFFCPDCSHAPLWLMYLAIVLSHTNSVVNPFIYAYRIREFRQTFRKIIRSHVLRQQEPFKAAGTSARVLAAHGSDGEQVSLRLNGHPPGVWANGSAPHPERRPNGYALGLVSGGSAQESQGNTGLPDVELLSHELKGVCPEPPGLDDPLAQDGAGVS
smiles,measurement,setting,value
Nc1nc2c(cnn2CCc2ccccc2)c2nc(-c3ccco3)nn12 [SCH-58261],selectivity for A2A over other adenosine receptors,adenosine receptor A2A,more than 50 times
same,cytotoxic effects,[1],does not have cytotoxic effects
same,cytotoxic effects,[1]; listed as SCH,not directly affected
same,cytotoxic effects,PBMCs,does not have cytotoxic effects
same,solubility,[2],poor solubility
